Entries after “also recorded” stand apart in the source; their conditions may differ.
Columns and labels:
[1] = test system: HPIV3 F; conditions: for HPIV3 F cleavage: Calu-3 cells and HAE inoculated with HPIV-3 F E108 or F K108, treated after inoculation (FIG. 3); for HPIV3 F E108 (F0) cleavage: Western blot of Calu-3 cell media (FIG. 8B)
Method: (A) Calu-3 cells and (B) HAE were inoculated with HPIV-3 F E108 (left) or HPIV-3 F K108 (right). After inoculation, cells were treated with the indicated concentrations of aprotinin or leupeptin. HPIV3 infected Calu-3 cell culture media and HAE apical wash resolved by reducing SDS-PAGE and immunoblotted with anti-HPIV3 F antibody. HPIV3 titer in cell culture media and HAE apical washes 3 days after infection. Values are means and SEM from 1-3 biological replicates.
Virions released by the infected cells into the media were titered. B) Western blotting for HPIV3 F in Calu-3 cell media.

[2] = test system: serine proteases, such as TMPRSS2; assay: Inhibition of serine proteases (statement without method)
[3] = test system: HPIV3; assay: HPIV3 titer (infectious viral particles) released by infected Calu-3 cells / HAE treated with protease inhibitor; format: cell-based, human parainfluenza virus 3 (HPIV3); conditions: for production of infectious viral particles / viral spread (HPIV3 titer): Calu-3 cell culture media and HAE apical washes 3 days after infection (FIG. 3); for viral titer: virions released by infected Calu-3 cells into the media (FIG. 8A)
Source text: Values are means and SEM from one biological replicate.

[4] = test system: HPIV3; assay: HPIV3 spread in intranasally infected cotton rats, viral titer of nasal tissue by plaque assay; conditions: intranasal nafamostat 3 mg/kg body weight daily, sacrificed 3 days after infection (FIG. 5)
Method: Viral titer (LogTCID50 per gram of nasal tissue) was determined by plaque assay. Values are means and SEM.

Row | Compound | HPIV3 F cleavage [1] | HPIV3 F E108 (F0) cleavage [1] | inhibition of serine proteases, such as TMPRSS2 [2] | production of infectious viral particles / viral spread (HPIV3 titer) [3] | viral titer [3] | HPIV3 spread in vivo (viral titer, LogTCID50 per gram of nasal tissue) [4]
1 | CC(=O)N[C@@H](CC(C)C)C(=O)N[C@@H](CC(C)C)C(=O)N[C@H](C=O)CCCNC(=N)N [leupeptin] | block HPIV3 F cleavage | reduced HPIV3 F E108 cleavage | effective inhibitors of serine proteases | inhibited viral spread; also recorded: reduces production of infectious viral particles | reduced viral titer | 
2 | CN(C)C(=O)COC(=O)Cc1ccc(OC(=O)c2ccc(NC(=N)N)cc2)cc1 [camostat] |  |  | effective inhibitors of serine proteases |  |  | 
3 | aprotinin | block HPIV3 F cleavage | reduced HPIV3 F E108 cleavage; also recorded: significant reduction in F0 cleavage | effective inhibitors of serine proteases | inhibited viral spread; also recorded: reduces production of infectious viral particles | reduced viral titer; also recorded: dose-dependent reduction in viral titer | 
4 | N=C(N)c1ccc2cc(OC(=O)c3ccc(N=C(N)N)cc3)ccc2c1 [Nafamostat] |  |  |  |  |  | reduced HPIV3 spread in nasal tissue of cotton rats; also recorded: blocks HPIV3 spread in vivo
